Literature values in patent US6034057A, “Peptide inhibitors of fibronectine” (Zeneca Limited, priority 1995, dated 2000).
Bridge positions count the residues as written; N and C are the ends. Ends that are not written are not given here. * marks the point of attachment. Acetyl(1-adamantyl) = O=C(CC12CC3CC(CC(C3)C1)C2)*

Key:
[1] = test system: fibronectin
[2] = molecular target: αvβ3 (Homo sapiens, UniProt P05106+P06756)
[3] = molecular target: αIIbβ IIIa (Homo sapiens, UniProt P05106+P08514)
[4] = test system: fibronectin; remark: listed apart in the source
[5] = test system: 120 kDa chymotryptic fragment of fibronectin

Chain of αvβ3 (P06756 31-889 limits assumed): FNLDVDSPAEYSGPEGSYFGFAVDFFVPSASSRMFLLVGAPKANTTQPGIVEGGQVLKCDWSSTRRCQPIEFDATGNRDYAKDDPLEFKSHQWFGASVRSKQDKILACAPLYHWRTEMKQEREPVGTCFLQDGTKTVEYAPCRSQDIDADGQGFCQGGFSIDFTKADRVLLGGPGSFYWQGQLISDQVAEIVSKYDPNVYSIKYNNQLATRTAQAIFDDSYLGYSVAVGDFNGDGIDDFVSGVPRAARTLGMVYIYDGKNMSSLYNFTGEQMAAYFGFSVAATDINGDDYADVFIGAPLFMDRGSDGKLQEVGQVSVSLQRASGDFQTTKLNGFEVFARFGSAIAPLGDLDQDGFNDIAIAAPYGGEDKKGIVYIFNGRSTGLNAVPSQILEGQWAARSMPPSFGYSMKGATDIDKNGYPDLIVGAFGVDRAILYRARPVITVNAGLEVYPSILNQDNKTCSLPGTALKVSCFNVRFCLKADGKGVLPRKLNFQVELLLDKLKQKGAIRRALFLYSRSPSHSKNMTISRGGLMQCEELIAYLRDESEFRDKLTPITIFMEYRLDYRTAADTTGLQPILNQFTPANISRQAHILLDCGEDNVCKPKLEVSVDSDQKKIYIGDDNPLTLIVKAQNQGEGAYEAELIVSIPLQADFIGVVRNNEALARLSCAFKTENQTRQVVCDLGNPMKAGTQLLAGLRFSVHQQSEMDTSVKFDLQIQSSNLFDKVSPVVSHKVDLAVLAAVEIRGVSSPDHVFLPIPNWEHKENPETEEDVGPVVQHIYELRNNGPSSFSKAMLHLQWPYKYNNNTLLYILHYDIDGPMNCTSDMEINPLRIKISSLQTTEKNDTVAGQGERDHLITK
Chain of αvβ3 (P06756 891-1048 partner limits assumed): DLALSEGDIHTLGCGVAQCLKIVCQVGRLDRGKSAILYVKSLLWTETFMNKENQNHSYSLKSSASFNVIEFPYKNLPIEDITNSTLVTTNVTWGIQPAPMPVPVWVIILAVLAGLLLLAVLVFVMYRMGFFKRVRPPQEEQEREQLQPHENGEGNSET
Chain of αvβ3 (P05106 27-788): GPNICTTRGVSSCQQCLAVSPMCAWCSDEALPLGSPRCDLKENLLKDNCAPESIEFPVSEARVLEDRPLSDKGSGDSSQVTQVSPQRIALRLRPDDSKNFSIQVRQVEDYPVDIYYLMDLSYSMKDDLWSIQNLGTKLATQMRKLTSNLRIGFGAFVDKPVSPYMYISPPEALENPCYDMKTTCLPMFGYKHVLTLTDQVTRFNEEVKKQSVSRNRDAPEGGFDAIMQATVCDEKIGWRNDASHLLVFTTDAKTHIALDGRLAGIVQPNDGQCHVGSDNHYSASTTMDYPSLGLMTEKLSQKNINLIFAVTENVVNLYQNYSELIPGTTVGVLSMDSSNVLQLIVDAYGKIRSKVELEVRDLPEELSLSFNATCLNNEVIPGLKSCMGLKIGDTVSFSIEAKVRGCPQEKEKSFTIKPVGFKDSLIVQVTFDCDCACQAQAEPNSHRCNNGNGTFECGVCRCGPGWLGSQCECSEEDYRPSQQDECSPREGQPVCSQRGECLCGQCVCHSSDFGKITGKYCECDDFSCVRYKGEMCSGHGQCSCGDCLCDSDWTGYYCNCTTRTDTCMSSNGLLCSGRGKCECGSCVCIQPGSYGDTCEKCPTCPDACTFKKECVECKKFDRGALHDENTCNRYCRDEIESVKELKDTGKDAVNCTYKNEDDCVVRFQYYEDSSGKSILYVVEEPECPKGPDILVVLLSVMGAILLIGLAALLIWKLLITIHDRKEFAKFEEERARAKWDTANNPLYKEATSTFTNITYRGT

Substance: 1-adamantaneacetyl-Cys-Gly-Arg-Gly-Asp-Ser-Pro-Cys ({Acetyl(1-adamantyl)}-CGRGDSPC; disulfide 1-8 (inferred))
- inhibition of binding of Jurkat cells to fibronectin coated plates [1]: inhibited the binding of Jurkat cells to fibronectin coated plates
- inhibition of function in αvβ3-dependent assay [2]: inhibited function
- inhibition of function in αIIbβ IIIa-dependent assay [3]: inhibited function

Substance: Arg-Cys-Asp-thioproline-Cys
- inhibition of leukocyte cell adhesion to fibronectin [4]: inhibitor of leukocyte cell adhesion to fibronectin
- inhibition of binding to the 120 kDa chymotryptic fragment of fibronectin [5]: inhibited the binding to the 120 kDa chymotryptic fragment of fibronectin
